Laboratory results published in US9353072B2, “Antimicrobial substituted thiazoles and methods of use” (Purdue Research Foundation, priority 2012, dated 2016).
≈ marks a conversion by molar mass, not a printed value.

Columns and labels:
[1] = test system: NRS108; assay: MIC broth microdilution, NRS108; type: cell-based; details: Staphylococcus aureus, Table 2, read-out: Minimum Inhibitory Concentration
Experimental: (§1) Determination of minimum inhibitory concentration (MIC). The MICs of the lead thiazole compound (compound 1a) and nine derivatives tested against all 18 MRSA strains were determined, in triplicate samples, using the broth microdilution method in accordance with the recommendations contained in the CLSI guidelines.

[2] = test system: VISA HIP07256 (NRS19); assay: MIC/MBC broth microdilution, NRS19 (VISA HIP07256); type: cell-based; details: Staphylococcus aureus; Table 2; VISA HIP07256; read-out: Minimum Inhibitory Concentration
Experimental: as §1

[3] = test system: MRSA USA700; assay: MIC broth microdilution, MRSA USA700; type: cell-based; details: Staphylococcus aureus, Table 2, read-out: Minimum Inhibitory Concentration
Experimental: as §1

[4] = test system: NRS107; assay: MIC/MBC broth microdilution, NRS107; type: cell-based; details: Staphylococcus aureus, Table 2, read-out: Minimum Inhibitory Concentration
Experimental: as §1

[5] = test system: VRSA (VRS10); assay: MIC/MBC broth microdilution, VRSA (VRS10); type: cell-based, Staphylococcus aureus; details: VRSA; for MIC: Staphylococcus aureus, Table 2, read-out: Minimum Inhibitory Concentration
Experimental: as §1

[6] = test system: NRS194; assay: MIC/MBC broth microdilution, NRS194; type: cell-based; details: Staphylococcus aureus, Table 2, read-out: Minimum Inhibitory Concentration
Experimental: as §1

[7] = test system: MRSA USA500 (NRS385); assay: MIC/MBC broth microdilution, NRS385 (USA500); type: cell-based; details: Staphylococcus aureus; Table 2; MRSA USA500; read-out: Minimum Inhibitory Concentration
Experimental: as §1

[8] = test system: MRSA ATCC 700699 (NRS1, VISA); assay: MIC/MBC broth microdilution, NRS1 (ATCC 700699); type: cell-based; details: Staphylococcus aureus; Table 2; MRSA ATCC 700699; read-out: Minimum Inhibitory Concentration
Experimental: as §1

[9] = test system: murine macrophage cells (J774.A1); assay: In vitro cytotoxicity analysis, MTS assay; type: cell-based; details: 16 μM, 24 hours
Experimental: In vitro cytotoxicity analysis: Compounds were assayed at concentrations of 2 μM, 4 μM, 8 μM, and 16 μM against a macrophage cell line (J774.A1) to determine the potential toxic effect in vitro. Murine macrophage cells were cultured in Dulbeco's Modified Eagle Medium (Sigma-Aldrich, St. Louis, Mo., USA) with 10% Fetal Bovine Serum (USA Scientific, Inc.) at 37° C. with 5% CO2. Controls received DMSO alone at a concentration equal to that in drug-treated cell samples. The cells were incubated with the compounds in a 96-Well Plate at 37° C. and 5.0% CO2 for 24 hours prior to addition of the assay reagent MTS 3-(4,5-dimethylthiazol-2-yl)-5-(3-carboxymethoxyphenyl)-2-(4-sulfophenyl)-2H-tetrazolium) (Promega, Madison, Wis., USA). The reagent measures the succinate dehydrogenase mitochondrial activity as an indicator of cell viability and proliferation. Corrected absorbance readings (actual absorbance readings for each treatment subtracted from background absorbance) were taken using a kinetic ELISA microplate reader (Molecular Devices, Sunnyvale, Calif., USA). The quantity of viable cells after treatment with each compound was expressed as a percentage of the control, DMSO.

[10] = test system: MRSA USA200; assay: MIC broth microdilution, MRSA USA200; type: cell-based; details: Staphylococcus aureus; Table 2; MRSA USA200; read-out: Minimum Inhibitory Concentration
Experimental: as §1

[11] = test system: MRSA USA400 (NRS123); assay: MIC/MBC broth microdilution, NRS123 (USA400); type: cell-based; details: Staphylococcus aureus; Table 2; MRSA USA400; read-out: Minimum Inhibitory Concentration
Experimental: as §1

[12] = test system: NRS119; assay: MIC/MBC broth microdilution, NRS119; type: cell-based; details: Staphylococcus aureus; Table 2; NRS119; read-out: Minimum Inhibitory Concentration
Experimental: as §1

[13] = test system: MRSA USA800; assay: MIC broth microdilution, MRSA USA800; type: cell-based; details: Staphylococcus aureus, Table 2, read-out: Minimum Inhibitory Concentration
Experimental: as §1

[14] = test system: MRSA USA100; assay: MIC broth microdilution, MRSA USA100; type: cell-based; details: Staphylococcus aureus; Table 2; MRSA USA100; read-out: Minimum Inhibitory Concentration
Experimental: as §1

[15] = test system: VISA LIM 3 (NRS37); assay: MIC/MBC broth microdilution, NRS37 (VISA LIM 3); type: cell-based; details: Staphylococcus aureus; Table 2; VISA LIM 3; read-out: Minimum Inhibitory Concentration
Experimental: as §1

[16] = test system: 18 different strains of MRSA and VRSA; assay: MIC broth microdilution, panel of 18 MRSA and VRSA strains (summary statements); type: cell-based, Staphylococcus aureus; details: relative to lead compound 1a; number of strains as stated in the sentence
Experimental: as §1

[17] = test system: MRSA NRS384 (USA300); assay: MIC/MBC broth microdilution, NRS384 (USA300); type: cell-based; details: Staphylococcus aureus; Table 2; MRSA USA300; read-out: Minimum Inhibitory Concentration
Experimental: as §1

[18] = test system: MRSA (USA300); assay: Time-kill assay; type: cell-based, Staphylococcus aureus; details: 3.0×MIC
Experimental: Time-kill assay. […] Viable CFU/mL was determined by serial dilution and plating on trypticase soy agar (TSA) (Becton, Dickinson and Company, Sparks, Md., USA) plates after 0, 2, 4, 6, 8, 10, and 12 hours of incubation at 37° C. to identify the time required to reduce the bacterial cell count by 3-log10.

[19] = test system: MRSA USA1100; assay: MIC broth microdilution, MRSA USA1100; type: cell-based; details: Staphylococcus aureus, Table 2, read-out: Minimum Inhibitory Concentration
Experimental: as §1

[20] = test system: MRSA ATCC 43300; assay: Flow cytometry with LIVE/DEAD Fixable Dead Cell Stain; type: cell-based, Staphylococcus aureus; details: compound 1a at 4.0×MIC; lysostaphin positive control; 10 minutes at 37° C.
Experimental: Flow cytometry and LIVE/DEAD® Fixable Dead Cell Stain: The action of the lead compound on cell membrane permeability of MRSA was assayed using the LIVE/DEAD® Fixable Dead Cell Stain Kit (Invitrogen, Eugene, Oreg., USA) according to the manufacturer's instructions. […] Post-treatment cells were fixed with 3.7% formaldehyde; the cells were then screened with a Beckman Coulter FC500 flow cytometer.

Compound | MIC [1] [µg/mL] | MIC [2] [µg/mL] | MIC [4] [µg/mL] | MIC [5] [µg/mL] | MIC [6] [µg/mL] | MIC [7] [µg/mL] | MIC [8] [µg/mL] | toxicity toward murine macrophage cells [9] | MIC [10] [µg/mL] | MIC [11] [µg/mL] | MIC [15] [µg/mL] | improvement in the MIC value relative to the lead compound [16] | MIC [17] [µg/mL] | other results
C/C(=N\NC(=N)N)c1sc(-c2ccc3ccccc3c2)nc1C [Compound 1h, 2-{1-[4-Methyl-2-(naphthalen-2-yl)thiazol-5-yl]ethylidene}hydrazinecarboximid-amide] | 1.9 (≈ 5.87 µM) | 1.9 (≈ 5.87 µM) | 1.9 (≈ 5.87 µM) | 0.5 (≈ 1.55 µM) | 1.9 (≈ 5.87 µM) | 1.9 (≈ 5.87 µM) | 3.8 (≈ 11.7 µM) | exhibited toxicity | 1.9 (≈ 5.87 µM) |  |  |  |  | MIC [3]: 1.9 µg/mL (≈ 5.87 µM); reduction in MIC compared to 1a against VRSA [5]: near three-fold reduction
C/C(=N\NC(=N)N)c1sc(-c2ccc(C3=CCCCC3)cc2)nc1C [Compound 7, 2-{1-[2-(4-(1-Cyclohexenyl)phenyl)-4-methylthiazol-5-yl]ethylidene}hydrazine-carboximidamide] | 2.3 (≈ 6.51 µM) | 0.6 (≈ 1.7 µM) | 0.6 (≈ 1.7 µM) | 1.3 (≈ 3.68 µM) | 0.6 (≈ 1.7 µM) | 1.2 (≈ 3.39 µM) | 0.6 (≈ 1.7 µM) | none were observed to be toxic | 1.2 (≈ 3.39 µM) | 0.6 (≈ 1.7 µM) | 0.6 (≈ 1.7 µM) | two- to four-fold improvement | 1.2 (≈ 3.39 µM) | MIC [12]: 0.6 µg/mL (≈ 1.7 µM); MIC [13]: 0.6 µg/mL (≈ 1.7 µM); MIC [14]: 1.2 µg/mL (≈ 3.39 µM)
C/C(=N\NC(=N)N)c1sc(-c2ccc(C3CCCCC3)cc2)nc1C [Compound 8, 2-{1-[2-(4-Cyclohexylphenyl)-4-methylthiazol-5-yl]ethylidene}hydrazinecarboximid-amide] |  |  | 0.7 (≈ 1.97 µM) |  |  | 0.7 (≈ 1.97 µM) | 0.7 (≈ 1.97 µM) | none were observed to be toxic | 1.5 (≈ 4.22 µM) | 0.7 (≈ 1.97 µM) | 0.4 (≈ 1.13 µM) | two- to four-fold improvement | 0.7 (≈ 1.97 µM) | bactericidal effect in time-kill assay ([18]; 12 hour incubation at 37° C.): bactericidal; time to eliminate MRSA completely (reduce CFU to zero) ([18]; MRSA (USA300)): six hours; MIC [19]: 0.7 µg/mL (≈ 1.97 µM)
lysostaphin: positive control; disrupts the cross-linking of the pentaglycin bridges in the cell wall of staphylococci [reference compound] |  |  |  |  |  |  |  |  |  |  |  |  |  | cells stained with the dye [20]: 45%
